Results: US20020009713A1, “Methods for identifying modulators of neuronal growth” (priority 2000, published 2002)

Legend:
rat sympathetic neurons = assay: MTT survival assay of cultured sympathetic neurons; type: cell-based; details: cultured in NGF or NGF+KCl
Description: Neurons were plated at low density (approximately one ganglion/well) in Nunclon™ 4-well culture dishes (Gibco BRL, Burlington, Ontario, Canada), coated with either rat tail collagen or poly-D-lysine and laminin (both from Collaborative Biomedical Products, Bedford, Mass.). Culture medium was UltraCulture (BioWhittaker, Walkersville, Md.), supplemented with 3% rat serum (Harlan Bioproducts, Madison, Wis.), 2 mM glutamine, 100 U/ml penicillin, 100 μg/ml streptomycin (all from BioWhittaker), and for the first two days, 7 μM cytosine arabinoside (Sigma-Aldrich Canada Ltd., Oakville, Ontario, Canada).
NGF-dependent neurons were selected by culturing sympathetic neurons for five days in the presence of 50 ng/ml NGF. Neurons were washed three times for one hour each in neurotrophin-free media, and were then fed with media containing 10 ng/ml NGF alone, or various concentrations of NGF plus either 100 ng/ml BDNF, 10 μg/ml αBDNF, or a 1:100 dilution of antiserum containing the p75^NTR antibody, REX (Weskamp and Reichardt, Neuron 6: 649-663, 1991). Each condition was repeated in triplicate, and analysis of survival was performed 48 hours later by using nonradioactive cell proliferation (MTT) assays (Celltitre 96; Promega; Belliveau et al., J. Cell Biol. 136:375-388, 1997). Specifically, 50 μl of the MTT reagent was added to 500 μl media in each well, and incubated for two hours at 37° C. After aspiration of the MTT containing media, 100 μl of a 0.065N HCl/isopropanol mixture was added to each well to lyse the cells, and colorimetric analysis was performed using an ELISA reader. For rat sympathetic neurons, 10 ng/ml NGF represents 100% survival, therefore all other values were considered to be relative to 10 ng/ml NGF. For mouse neurons, 7.5 ng/ml NGF represents 100% survival, and was thus considered to be the 100% survival threshold for neuritogenesis experiments.

sympathetic neurons = assay: Quantitative dot-blot of MAP2 association with microtubules and microtubule stability; type: cell-based, rat; details: neurons maintained in NGF or NGF+KCl
Description: FIG. 22 is a schematic illustration showing immuno-dot blot analysis of MAP2 association and tubulin dynamics in SCG neurons. […]
Microtubules were isolated from cultured sympathetic neurons, and the relative amount of MAP2 present per microgram tubulin was determined using quantitative dot-blot analysis. […] Depolarization enhances MAP2 levels and CamKII phosphorylation in sympathetic neurons. We performed western blot analysis of sympathetic neurons treated with 10 ng/ml NGF, 50 mM KCl, or NGF+KCl. Lysates containing equal amounts of protein were separated by SDS-PAGE, transferred to nitrocellulose, and then probed for MAP2, phosphorylated-CamKII, phosphorylated-ERKs, or total ERK protein. KCl increases the amount of MAP2 present in sympathetic neurons, and enhances CamKII phosphorylation.
Inhibition of either CamKII or MEK is sufficient to inhibit activitydependent dendrite formation. Immunocytochemical analysis for MAP2 on sympathetic neurons cultured in the presence of NGF+KCl with or without 10 um KN62, 75 um PD98059, 100 nM H-89 or 10 uM forskolin. […] In this study, microtubule stability was determined in sympathetic neurons maintained in NGF or NGF+KCl, and treated with selective pharmacological inhibitors.

[1] = test system: postnatal sympathetic neurons (SCG neurons); assay: Campenot chamber neurite growth assay; type: cell-based, rat; details: 50 μM U0126 with 10 ng/ml NGF
Description: We have devised a method for quantitatively assaying neurite growth. In this assay, the cell bodies of neurons are plated in Campenot chamber, a compartmentalized dish that has scratches or grooves in the matrix. The compartments are physically separated from each other by, for example, a Teflon® divider. The cells are placed in the central compartment. The scratches allow neurites to extend from the neuronal cell bodies and into adjacent compartments (FIG. 10A).
Neurites were induced to grow into HGF supplemented side compartments, and then visualized by staining against tubulin. Adenoviral-mediated expression of DN MEK in SCG neurons decreased neuritogenesis by 39% (FIGS. 10B, 10C).
We cultured postnatal sympathetic neurons in Campenot chambers. […] Addition of 50 μM U0126 in conjunction with 10 ng/ml NGF abrogates this growth while having no effects on cell survival (FIG. 15).

[2] = test system: sympathetic neurons exogenously expressing TrkB; details: U0126 added with 25 ng/ml BDNF, dose-dependent
Description: We transduced postnatal sympathetic neurons with an adenovirus encoding TrkB. In Campenot dishes, these neurons grow processes into compartments containing 25 ng/ml BDNF.

## N#CC(=C(/N)Sc1ccccc1N)/C(C#N)=C(\N)Sc1ccccc1N [U0126]
Rat sympathetic neurons
  survival of sympathetic neurons (MTT): None of these compounds perturbs
Sympathetic neurons
  KCl-induced increase in microtubule stability: completely inhibit
[1]
  NGF-induced neuronal growth into side compartment: abrogates
  cell survival: no effects
[2]
  TrkB-mediated neuronal growth: dramatically reduced
